US7700617B2, “Salt of naphthyridine carboxylic acid derivative” (LG Life Sciences, Ltd., priority 1997, dated 2010)

Key:
Assay type in all cases: physicochemical
[1] = Chemical stability at elevated temperature, decomposition by liquid chromatography; settings: for Chemical stability compared with the anhydrate: 70° C., liquid chromatography; for Thermal stability with elapsed time: at 70° C.
Protocol: The present inventors also compared the chemical stability under heating of the hydrates with that of the anhydrate in order to identify the influence of hydration on the chemical stability. In this test, the anhydrate and hydrate were each kept at 70° C. for 4 weeks, and the extent of decomposition is analyzed by liquid chromatography. No difference in the extent of decomposition was noticed between the hydrates and the anhydrate, and thus confirming that the hydrate has the same chemical stability as the anhydrate.
The chemical stability of the n=3 hydrate of Example 2 and the n=1.5 hydrate of Example 3 and the anhydrate of Example 1 were compared at elevated temperature in order to determine the effect on chemical stability of the extent of hydration.
The anhydrate and each of the hydrates were introduced into a glass vial and maintained at 70° C. The extent of decomposition with elapsed time was analyzed by liquid chromatography.

[2] = Observed moisture content of the methanesulfonate hydrates; settings: by hydration number (n)
Description: The moisture content of the methanesulfonate hydrates varies with the hydration number (n) of the hydrated molecule. The methanesulfonate has a molecular weight of 485.5 thus the calculated moisture content of hydrates where n is 1, 1.5, 2, 2.5, 3, 3.5 and 4 is 3.6%, […], 6.9%, 8.5%, 10.0%, 11.5% and 12.9% respectively. However, the actual moisture content of the methanesulfonate hydrates may differ from the calculated value depending on various factors including recrystallization conditions and drying conditions.

[3] = Equilibrium moisture content determination of hydrates in desiccators of controlled relative humidity; settings: for Relative humidity range with constant moisture content: FIGS. 3 and 4
Protocol: Six saturated aqueous salt solutions were introduced into each desiccator to control the inner relative humidity to a specific value as shown in Table 3. Then, equilibrium moisture contents of n=3 hydrate and n=1.5 hydrate of Examples 2 and 3, respectively, were determined at several relative humidities.
The sample (100 mg) was spread on a pre-weighed Petri dish and the total weight was accurately measured, then three of the sample were placed in each desiccator of Table 3. The desiccators were allowed to stand at normal temperature for 7 days and then the sample was taken to be weighed. After 13 days, one of the three samples inside each desiccator was taken and the moisture content of each was measured by the thermogravimetric analysis described in Test Example 2. Equilibrium moisture content at each relative humidity is represented in FIG. 3 (n=3 hydrate) and FIG. 4 (n=1.5 hydrate). […] Both hydrates are stable since they maintain a constant equilibrium moisture content regardless of the relative humidity change.

SMILES | Chemical stability compared with the anhydrate ([1]; 4 weeks) | Thermal stability with elapsed time ([1]; 1 week) [%] | Thermal stability with elapsed time ([1]; 2 weeks) [%] | Thermal stability with elapsed time ([1]; 3 weeks) [%] | Thermal stability with elapsed time ([1]; 4 weeks) [%] | Thermal stability with elapsed time ([1]; Initial) [%] | Moisture Content ([2]; listed as 1.5, hydrate) | Relative humidity range with constant moisture content [3] [%] | Water taken up ([3]; above 75% relative humidity) | Equilibrium moisture content ([3]; relative humidity 23 to 64%) | Moisture Content [2] | Equilibrium moisture content ([3]; relative humidity 23 to 75%, about 2 weeks)
CON=C1CN(c2nc3c(cc2F)c(=O)c(C(=O)O)cn3C2CC2)CC1CN.CON=C1CN(c2nc3c(cc2F)c(=O)c(C(=O)O)cn3C2CC2)CC1CN.CS(=O)(=O)O.CS(=O)(=O)O.O.O.O (stereo not drawn) [n = 1.5 hydrate, 7-(3-aminomethyl-4-methoxyiminopyrrolidin-1-yl)-1-cyclopropyl-6-fluoro-4-oxo-1,4-dihydro-1,8-naphthyridine-3-carboxylic acid methanesulfonate n=1.5 hydrate] | same degree of chemical stability as the anhydrate | 97.3 | 95.8 | 97.2 | 96.2 | 100 | 4~6 % w/w | 23 to 64 | over 10% | around 5% | – | –
CON=C1CN(c2nc3c(cc2F)c(=O)c(C(=O)O)cn3C2CC2)CC1CN.CON=C1CN(c2nc3c(cc2F)c(=O)c(C(=O)O)cn3C2CC2)CC1CN.CS(=O)(=O)O.CS(=O)(=O)O.O.O.O.O.O (stereo not drawn) [n = 2.5 hydrate] | – | – | – | – | – | – | – | – | – | – | 8~9 % w/w | –
CON=C1CN(c2nc3c(cc2F)c(=O)c(C(=O)O)cn3C2CC2)CC1CN.CS(=O)(=O)O.O.O.O (stereo not drawn) [n = 3 hydrate, 7-(3-aminomethyl-4-methoxyiminopyrrolidin-1-yl)-1-cyclopropyl-6-fluoro-4-oxo-1,4-dihydro-1,8-naphthyridine-3-carboxylic acid methanesulfonate n=3 hydrate] | same degree of chemical stability as the anhydrate | 102.4 | 100.7 | 99.2 | 99.2 | 100 | – | 23 to 75 | – | – | – | around 10%
CON=C1CN(c2nc3c(cc2F)c(=O)c(C(=O)O)cn3C2CC2)CC1CN.CON=C1CN(c2nc3c(cc2F)c(=O)c(C(=O)O)cn3C2CC2)CC1CN.CS(=O)(=O)O.CS(=O)(=O)O.O.O.O.O.O.O.O (stereo not drawn) [n = 3.5 hydrate] | – | – | – | – | – | – | – | – | – | – | 11~12 % w/w | –
CON=C1CN(c2nc3c(cc2F)c(=O)c(C(=O)O)cn3C2CC2)CC1CN.CS(=O)(=O)O.O.O.O.O (stereo not drawn) [n = 4 hydrate] | – | – | – | – | – | – | – | – | – | – | 12~13 % w/w | –
